≈ marks a conversion by molar mass, not a printed value. Calls of active or inactive are those of the source. The calls are words filed in the database; no cut-off is given here.
How the values were obtained:
[1] = Antioxidant activity assessed as ABTS radical scavenging activity at 3 mg/ml incubated for 2 hrs in dark by spectrophotometric analysis (reference value: 1 to 9%); format: functional
[2] = Antioxidant activity assessed as ABTS radical scavenging activity at 2.5 mg/ml incubated for 2 hrs in dark by spectrophotometric analysis (reference value: 1 to 9%); format: functional
[3] = Antioxidant activity assessed as ABTS radical scavenging activity at 0.5 mg/ml incubated for 2 hrs in dark by spectrophotometric analysis (reference value: 1 to 9 %); format: functional
[4] = Antioxidant activity assessed as ABTS radical scavenging activity at 2 mg/ml incubated for 2 hrs in dark by spectrophotometric analysis (reference value: 1 to 9%); format: functional
[5] = Antioxidant activity assessed as ABTS radical scavenging activity at 1 mg/ml incubated for 2 hrs in dark by spectrophotometric analysis (reference value: 1 to 9%); format: functional
[6] = Antioxidant activity assessed as ABTS radical scavenging activity incubated for 2 hrs in dark by spectrophotometric analysis; format: functional
[7] = Antioxidant activity assessed as DPPH free radical scavenging activity at 2.5 mg/ml incubated for 20 mins in dark (reference value: 1 to 9%); format: functional
[8] = Antioxidant activity assessed as reduction in beta-carotene/linoleic acid bleaching activity at 3 mg/ml after 2 hrs by spectrophotometric method (reference value: 1 to 8%); format: functional; design: scale not given: the % may be the effect or the level left
[9] = Antioxidant activity assessed as DPPH free radical scavenging activity at 2 mg/ml incubated for 20 mins in dark (reference value: 1 to 9%); format: functional
[10] = Antioxidant activity assessed as DPPH free radical scavenging activity incubated for 20 mins in dark; format: functional
[11] = Antioxidant activity assessed as reduction in beta-carotene/linoleic acid bleaching activity at 0.5 mg/ml after 2 hrs by spectrophotometric method (reference value: 1 to 8 %); format: functional; design: scale not given: the % may be the effect or the level left
[12] = Antioxidant activity assessed as reduction in beta-carotene/linoleic acid bleaching activity at 2.5 mg/ml after 2 hrs by spectrophotometric method (reference value: 1 to 8%); format: functional; design: scale not given: the % may be the effect or the level left
[13] = Antioxidant activity assessed as reduction in beta-carotene/linoleic acid bleaching activity at 2 mg/ml after 2 hrs by spectrophotometric method (reference value: 1 to 8%); format: functional; design: scale not given: the % may be the effect or the level left
[14] = Antioxidant activity assessed as DPPH free radical scavenging activity at 3 mg/ml incubated for 20 mins in dark (reference value: 1 to 9%); format: functional
[15] = Antioxidant activity assessed as reduction in beta-carotene/linoleic acid bleaching activity at 1 mg/ml after 2 hrs by spectrophotometric method (reference value: 1 to 8%); format: functional; design: scale not given: the % may be the effect or the level left
[16] = Antioxidant activity assessed as DPPH free radical scavenging activity at 0.5 mg/ml incubated for 20 mins in dark (reference value: 1 to 9 %); format: functional
[17] = Antioxidant activity assessed as DPPH free radical scavenging activity at 1 mg/ml incubated for 20 mins in dark (reference value: 1 to 9%); format: functional
[18] = Antioxidant activity assessed as reduction in beta-carotene/linoleic acid bleaching activity after 2 hrs by spectrophotometric method; format: functional
[19] = system: Bacillus subtilis; assay: Antibacterial activity against Bacillus subtilis JN934392 after 24 hrs by MTT dye based microdilution method; format: functional; conditions: JN934392, 24 h
[20] = system: Bacillus cereus; assay: Bactericidal activity against Bacillus cereus JN934390 after 48 hrs by MTT dye based microdilution method; format: functional; conditions: JN934390, 48 h
[21] = system: Bacillus subtilis; assay: Bactericidal activity against Bacillus subtilis JN934392 after 48 hrs by MTT dye based microdilution method; format: functional; conditions: JN934392, 48 h
[22] = system: Micrococcus luteus; assay: Antibacterial activity against Micrococcus luteus assessed as diameter of inhibition zone at 125 mg/ml by agar well diffusion method; format: functional; conditions: read-out: DIZ
[23] = system: Staphylococcus aureus; assay: Antibacterial activity against Staphylococcus aureus ATCC 6538 after 24 hrs by MTT dye based microdilution method; format: functional; conditions: ATCC 6538, 24 h
[24] = system: Salmonella enteritidis; assay: Antibacterial activity against Salmonella enterica serotype Enteritidis ATCC 43972 after 24 hrs by MTT dye based microdilution method; format: functional, Salmonella enterica subsp. enterica serovar Enteritidis; conditions: ATCC 43972, 24 h
[25] = system: Klebsiella pneumoniae; assay: Antibacterial activity against Klebsiella pneumoniae assessed as diameter of inhibition zone at 125 mg/ml by agar well diffusion method; format: functional; conditions: read-out: DIZ
[26] = system: Micrococcus luteus; assay: Antibacterial activity against Micrococcus luteus after 24 hrs by MTT dye based microdilution method; format: functional
[27] = system: Salmonella enteritidis; assay: Bactericidal activity against Salmonella enterica serotype Enteritidis ATCC 43972 after 48 hrs by MTT dye based microdilution method; format: functional, Salmonella enterica subsp. enterica serovar Enteritidis; conditions: ATCC 43972, 48 h
[28] = system: Escherichia coli; assay: Antibacterial activity against Escherichia coli ATCC 25922 assessed as diameter of inhibition zone at 125 mg/ml by agar well diffusion method; format: functional
[29] = system: Bacillus cereus; assay: Antibacterial activity against Bacillus cereus JN934390 after 24 hrs by MTT dye based microdilution method; format: functional; conditions: JN934390, 24 h
[30] = system: Bacillus subtilis; assay: Antibacterial activity against Bacillus subtilis JN934392 assessed as diameter of inhibition zone at 125 mg/ml by agar well diffusion method; format: functional; conditions: read-out: DIZ
[31] = system: Klebsiella pneumoniae; assay: Antibacterial activity against Klebsiella pneumoniae after 24 hrs by MTT dye based microdilution method; format: functional
[32] = system: Staphylococcus aureus; assay: Antibacterial activity against Staphylococcus aureus ATCC 6538 assessed as diameter of inhibition zone at 125 mg/ml by agar well diffusion method; format: functional; conditions: read-out: DIZ
[33] = system: Bacillus cereus; assay: Antibacterial activity against Bacillus cereus JN934390 assessed as diameter of inhibition zone at 125 mg/ml by agar well diffusion method; format: functional; conditions: read-out: DIZ
[34] = system: Listeria monocytogenes; assay: Antibacterial activity against Listeria monocytogenes assessed as diameter of inhibition zone at 125 mg/ml by agar well diffusion method; format: functional; conditions: read-out: DIZ
[35] = system: Listeria monocytogenes; assay: Antibacterial activity against Listeria monocytogenes after 24 hrs by MTT dye based microdilution method; format: functional
[36] = system: Salmonella enteritidis; assay: Antibacterial activity against Salmonella enterica serotype Enteritidis ATCC 43972 assessed as diameter of inhibition zone at 125 mg/ml by agar well diffusion method; format: functional, Salmonella enterica subsp. enterica serovar Enteritidis; conditions: read-out: DIZ
[37] = system: Staphylococcus aureus; assay: Bactericidal activity against Staphylococcus aureus ATCC 6538 after 48 hrs by MTT dye based microdilution method; format: functional; conditions: ATCC 6538, 48 h

Row | Compound | Activity [1] | Activity [2] | Activity [3] | Activity [4] | Activity [5] | IC50 [6] | Activity [7] | Activity [8] | Activity [9] | Activity [10] | IC50 [10] | Activity [11] | Activity [12] | Activity [13] | Activity [14] | Activity [15] | Activity [16] | Activity [17] | IC50 [18] | other results
1 | Cc1c(C)c2c(c(C)c1O)CCC(C)(C(=O)O)O2 (centres undefined) [TROLOX] | 91.8% | 90.8% | 82.1% | 89.2% | 85.5% | 300 µg/mL (≈ 1.2 mM) | – | – | – | – | – | – | – | – | – | – | – | – | – | –
2 | CC(C)[C@@H]1CC[C@@H](C)C[C@@]12N(C)C(=O)[C@@H]1[C@H]3C(=O)NC(=O)[C@H]3ON12 | 72% | 70% | 23.5% | 57.2% | 42.6% | 1500 µg/mL (≈ 4.47 mM) | 67.2% | 47.2% | 58.7% | Dose-dependent effect | 1550 µg/mL (≈ 4.62 mM) | 25.9% | 38% | 37.1% | 80.3% | 35.6% | 21.6% | 39.3% | – | –
3 | Cc1cccc(N2C(=O)[C@H]3[C@H](ON4[C@@H]3C(=O)N(C)[C@@]43C[C@H](C)CC[C@H]3C(C)C)C2=O)c1 | 52.4% | 47.7% | 16.1% | 35.3% | 25.8% | 2700 µg/mL (≈ 6.35 mM) | 57.5% | 65.8% | 49.9% | Dose-dependent effect | 1880 µg/mL (≈ 4.42 mM) | 25% | 57.6% | 43.6% | 73.8% | 39% | 26.8% | 38.7% | 1930 µg/mL (≈ 4.54 mM) | –
4 | CC(C)[C@@H]1CC[C@@H](C)C[C@@]12N(C)C(=O)[C@@H]1[C@H]3C(=O)N(C)C(=O)[C@H]3ON12 | 75.3% | 70.3% | 39.2% | 59.9% | 41.5% | 1400 µg/mL (≈ 4.01 mM) | 55.8% | 67.5% | 53.4% | Dose-dependent effect | 1650 µg/mL (≈ 4.72 mM) | 36.5% | 57.2% | 49.7% | 64% | 47.7% | 18.2% | 43.1% | 2160 µg/mL (≈ 6.18 mM) | –
5 | CC(C)[C@@H]1CC[C@@H](C)C[C@@]12N(C)C(=O)[C@@H]1[C@H]3C(=O)N(c4ccccc4)C(=O)[C@H]3ON12 | 73.5% | 58.6% | 14.7% | 41% | 29.7% | 2250 µg/mL (≈ 5.47 mM) | 76.2% | 58.9% | 74.2% | Dose-dependent effect | 900 µg/mL (≈ 2.19 mM) | 28.7% | 53.1% | 48.2% | 80.7% | 35.4% | 21.6% | 54.9% | 2310 µg/mL (≈ 5.61 mM) | –
6 | Cc1cc(C(C)(C)C)c(O)c(C(C)(C)C)c1 [BUTYLATED HYDROXYTOLUENE] | – | – | – | – | – | – | 85.2% | 79.2% | 84.8% | – | 720 µg/mL (≈ 3.27 mM) | 39.6% | 75.1% | 65.9% | 85.8% | 52.3% | 33.8% | 69.2% | 930 µg/mL (≈ 4.22 mM) | –
7 | CC(C)[C@@H]1CC[C@@H](C)C[C@@]12N(C)C(=O)[C@@H]1[C@H]3C(=O)N(c4ccc5ccccc5c4)C(=O)[C@H]3ON12 | 60.1% | 47.9% | 25.4% | 43.6% | 33.2% | 2520 µg/mL (≈ 5.46 mM) | 39.5% | 57.4% | 35% | Dose-dependent effect | 2920 µg/mL (≈ 6.33 mM) | 24.5% | 45.1% | 36.5% | 50.9% | 29.6% | 13.8% | 27.6% | 2680 µg/mL (≈ 5.81 mM) | –
8 | CC(C)[C@@H]1CC[C@@H](C)C[C@@]12N(C)C(=O)[C@@H]1[C@H]3C(=O)N(c4ccc(Cl)cc4)C(=O)[C@H]3ON12 | 74% | 60.1% | 29.7% | 49.4% | 39.9% | 2000 µg/mL (≈ 4.48 mM) | 53.1% | 73.2% | 48.2% | Dose-dependent effect | 2150 µg/mL (≈ 4.82 mM) | 47.5% | 61.3% | 56.4% | 47.2 to 63.9% | 53.7% | 18.1% | 31.7% | 710 µg/mL (≈ 1.59 mM) | –
9 | COc1ccc(N2C(=O)[C@H]3[C@H](ON4[C@@H]3C(=O)N(C)[C@@]43C[C@H](C)CC[C@H]3C(C)C)C2=O)cc1 | 75.1% | 71.5% | 48.9% | 68.9% | 61% | 480 µg/mL (≈ 1.09 mM) | 65.3% | 67.7% | 61.7% | Dose-dependent effect | 1120 µg/mL (≈ 2.54 mM) | 44.5% | 59.3% | 55.7% | 68.2% | 50% | 32.9% | 48.1% | 990 µg/mL (≈ 2.24 mM) | MIC [19]: 6250 µg/mL (≈ 14.2 mM); MBC [20]: 50000 µg/mL (≈ 113 mM); MBC [21]: 50000 µg/mL (≈ 113 mM); zone of inhibition at 125000 µg/mL [22]: 10 mm; MIC [23]: 6250 µg/mL (≈ 14.2 mM); MIC [24]: 3120 µg/mL (≈ 7.07 mM); zone of inhibition at 125000 µg/mL [25]: 9 mm; MIC [26]: 12500 µg/mL (≈ 28.3 mM); MBC [27]: 50000 µg/mL (≈ 113 mM); diameter of the inhibition zone (DIZ) [28]: inactive; MIC [29]: 6250 µg/mL (≈ 14.2 mM); zone of inhibition at 125000 µg/mL [30]: 11.3 mm; MIC [31]: 12500 µg/mL (≈ 28.3 mM); zone of inhibition at 125000 µg/mL [32]: 9.66 mm; zone of inhibition at 125000 µg/mL [33]: 12.7 mm; zone of inhibition at 125000 µg/mL [34]: 11 mm; MIC [35]: 12500 µg/mL (≈ 28.3 mM); zone of inhibition at 125000 µg/mL [36]: 15 mm; MBC [37]: 50000 µg/mL (≈ 113 mM)

From ChEMBL document CHEMBL4028834, “Stereoselective synthesis of enantiopure N-substituted pyrrolidin-2,5-dione derivatives by 1,3-dipolar cycloaddition and assessment of their in vitro antioxidant and antibacterial activities” (Bioorg Med Chem Lett, 2017)
